Assay results taken from US12398107B2, “Fungicidal nitroanilino substituted pyrazoles” (FMC Corporation, priority 2018, dated 2025).

Columns and labels:
Assay type in all cases: in vivo
[1] = system: Septoria tritici; experiment: Test A: wheat leaf blotch, preventive spray on wheat seedlings; settings: 50 ppm, 100 = 100% disease control, 0 = no control relative to controls
Text: (§1) General protocol for preparing test suspensions for Tests A-F: the test compounds were first dissolved in acetone in an amount equal to 3% of the final volume and then suspended at the desired concentration (in ppm) in acetone and purified water (50/50 mix by volume) containing 250 ppm of the surfactant PEG400 (polyhydric alcohol esters). The resulting test suspensions were then used in Tests A-F. The test solution was sprayed to the point of run-off on wheat seedlings. The following day the seedlings were inoculated with a spore suspension of Septoria tritici (the causal agent of wheat leaf blotch) and incubated in a saturated atmosphere at 24° C. for 48 h, and then moved to a growth chamber at 20° C. for 17 days, after which time disease ratings were made. A rating of 100 indicates 100% disease control and a rating of 0 indicates no disease control (relative to the controls). A dash (-) indicates the compound was not tested.

[2] = system: Phakopsora pachyrhizi; experiment: Test D: Asian soybean rust, preventive spray on soybean seedlings; settings: 50 ppm, 100 = 100% disease control, 0 = no control
Text: General protocol for preparing test suspensions for Tests A-F: the test compounds were first dissolved in acetone in an amount equal to 3% of the final volume and then suspended at the desired concentration (in ppm) in acetone and purified water (50/50 mix by volume) containing 250 ppm of the surfactant PEG400 (polyhydric alcohol esters). The resulting test suspensions were then used in Tests A-F.
The test solution was sprayed to the point of run-off on soybean seedlings. The following day the seedlings were inoculated with a spore suspension of Phakopsora pachyrhizi (the causal agent of Asian soybean rust) and incubated in a saturated atmosphere at 22° C. for 24 h and then moved to a growth chamber at 22° C. for 8 days, after which time visual disease ratings were made.
A rating of 100 indicates 100% disease control and a rating of 0 indicates no disease control (relative to the controls). A dash (-) indicates the compound was not tested.

[3] = system: Puccinia recondita f. sp. tritici; experiment: Test B: wheat leaf rust, preventive spray on wheat seedlings; settings: 50 ppm, 100 = 100% disease control, 0 = no control relative to controls
Text: as §1, with “Puccinia recondita f. sp.” for “Septoria”, “rust)” for “blotch)”, “20°” for “24°”, “24” for “48”, “7” for “17”

[4] = system: Blumeria graminis f. sp. tritici; experiment: Test C: wheat powdery mildew, preventive spray on wheat seedlings; settings: 50 ppm, rated after 8 days, 100 = 100% disease control, 0 = no control
Text: General protocol for preparing test suspensions for Tests A-F: the test compounds were first dissolved in acetone in an amount equal to 3% of the final volume and then suspended at the desired concentration (in ppm) in acetone and purified water (50/50 mix by volume) containing 250 ppm of the surfactant PEG400 (polyhydric alcohol esters). The resulting test suspensions were then used in Tests A-F. The test suspension was sprayed to the point of run-off on wheat seedlings. The following day the seedlings were inoculated with a spore dust of Blumeria graminis f. sp. tritici, (also known as Erysiphe graminis f. sp. tritici, the causal agent of wheat powdery mildew) and incubated in a growth chamber at 20° C. for 8 days, after which time visual disease ratings were made. A rating of 100 indicates 100% disease control and a rating of 0 indicates no disease control (relative to the controls). A dash (-) indicates the compound was not tested.

[5] = system: Botrytis cinerea; experiment: Test E: tomato Botrytis, preventive spray on tomato seedlings; settings: 50 ppm, 100 = 100% disease control, 0 = no control
Text: (§2) General protocol for preparing test suspensions for Tests A-F: the test compounds were first dissolved in acetone in an amount equal to 3% of the final volume and then suspended at the desired concentration (in ppm) in acetone and purified water (50/50 mix by volume) containing 250 ppm of the surfactant PEG400 (polyhydric alcohol esters). The resulting test suspensions were then used in Tests A-F. The test suspension was sprayed to the point of run-off on tomato seedlings. The following day the seedlings were inoculated with a spore suspension of Botrytis cinerea (the causal agent of tomato Botrytis) and incubated in a saturated atmosphere at 20° C. for 48 h, and then moved to a growth chamber at 24° C. for 3 days, after which time visual disease ratings were made. A rating of 100 indicates 100% disease control and a rating of 0 indicates no disease control (relative to the controls). A dash (-) indicates the compound was not tested.

[6] = system: Alternaria solani; experiment: Test F: tomato early blight, preventive spray on tomato seedlings; settings: 50 ppm, 100 = 100% disease control, 0 = no control
Text: as §2, with “Alternaria solani” for “Botrytis cinerea”, “early blight)” for “Botrytis)”, “27°” for “20°”, “20°” for “24°”

Compound | pest or weed control at 50 ppm ([1]; Zymoseptoria tritici, read-out: Test A disease control rating (wheat leaf blotch)) [%] | pest or weed control at 50 ppm ([2]; Phakopsora pachyrhizi, read-out: Test D disease control rating (Asian soybean rust)) [%] | pest or weed control at 50 ppm ([3]; read-out: Test B disease control rating (wheat leaf rust)) [%] | pest or weed control at 50 ppm ([4]; Blumeria graminis, 192 h, read-out: Test C disease control rating (wheat powdery mildew)) [%] | pest or weed control at 50 ppm ([5]; Botrytis cinerea, read-out: Test E disease control rating (tomato Botrytis)) [%] | pest or weed control at 50 ppm ([6]; Alternaria solani, read-out: Test F disease control rating (tomato early blight)) [%] | Test A disease control rating (wheat leaf blotch) [1] [%] | Test D disease control rating (Asian soybean rust) [2] [%] | Test B disease control rating (wheat leaf rust) [3] [%] | Test C disease control rating (wheat powdery mildew) [4] [%] | Test E disease control rating (tomato Botrytis) [5] [%] | Test F disease control rating (tomato early blight) [6] [%]
Cc1nn(C)c(Nc2c(F)cccc2[N+](=O)[O-])c1-c1c(F)cc(F)cc1Br [Compound 1, 4-(2-bromo-4,6-difluorophenyl)-N-(2-fluoro-6-nitrophenyl)-1,3-dimethyl-1H-pyrazol-5-amine] | 100 | 84 | 100 | 100 | 100 | 99 | – | – | – | – | – | –
COc1cc(F)c(-c2c(C)nn(C)c2Nc2c(Cl)cc(F)cc2[N+](=O)[O-])c(F)c1 [Compound 2] | – | – | – | – | – | – | 100 | 94 | 100 | 99 | 99 | 61
COCc1ccc(Nc2c(-c3ccc(F)cc3Cl)c(C)nn2C)c([N+](=O)[O-])c1 [Compound 4] | – | – | – | – | – | – | – | 0 | 86 | 76 | 74 | 0
C#CCOc1ccc(Nc2c(-c3ccc(F)cc3Cl)c(C)nn2C)c([N+](=O)[O-])c1 [Compound 5] | – | – | – | – | – | – | 97 | 19 | 86 | 76 | 95 | 0
CCc1ccc(Nc2c(-c3ccc(F)cc3Cl)c(C)nn2C)c([N+](=O)[O-])c1 [Compound 6] | – | – | – | – | – | – | – | 0 | 74 | 27 | 55 | 0
Cc1nn(C)c(Nc2c([N+](=O)[O-])ccc(F)c2F)c1-c1ccc(F)cc1Cl [Compound 7] | – | – | – | – | – | – | 100 | 96 | 99 | 94 | 99 | 89
Cc1nn(C)c(Nc2c(Cl)cc(Br)cc2[N+](=O)[O-])c1-c1ccc(F)cc1Cl [Compound 8] | – | – | – | – | – | – | 99 | 73 | 99 | 92 | 99 | 73
Cc1nn(C)c(Nc2c(F)cc(F)cc2[N+](=O)[O-])c1-c1ccc(Cl)cc1Cl [Compound 9] | – | – | – | – | – | – | 100 | 0 | 100 | 97 | 97 | 99
Cc1nn(C)c(Nc2c(Cl)cc(F)cc2[N+](=O)[O-])c1-c1ccc(Cl)cc1Cl [Compound 10] | – | – | – | – | – | – | 100 | 0 | 99 | 48 | 68 | 9
Cc1nn(C)c(Nc2c(F)cc(Cl)cc2[N+](=O)[O-])c1-c1ccc(Cl)cc1Cl [Compound 11] | – | – | – | – | – | – | 100 | 0 | 98 | 97 | 98 | 99
Cc1nn(C)c(Nc2c(F)cccc2[N+](=O)[O-])c1-c1ccc(Cl)cc1F [Compound 12] | – | – | – | – | – | – | 100 | 0 | 99 | 81 | 97 | 53
COc1ccc(Nc2c(-c3c(F)cccc3F)c(C)nn2C)c([N+](=O)[O-])c1 [Compound 87] | – | – | – | – | – | – | – | 0 | 99 | 98 | 98 | 93
COc1ccc(Nc2c(-c3ccc(F)cc3F)c(C)nn2C)c([N+](=O)[O-])c1 [Compound 88] | – | – | – | – | – | – | – | 0 | 97 | 84 | 99 | 9
COc1ccc(Nc2c(-c3c(F)cc(F)cc3Cl)c(C)nn2C)c([N+](=O)[O-])c1 [Compound 89] | – | – | – | – | – | – | – | 80 | 100 | 99 | 99 | 99
Cc1ccc(Nc2c(-c3c(F)cc(F)cc3Cl)c(C)nn2C)c([N+](=O)[O-])c1 [Compound 106] | – | – | – | – | – | – | – | 0 | 100 | 98 | 99 | 68
Cc1ccc(Nc2c(-c3ccc(F)cc3F)c(C)nn2C)c([N+](=O)[O-])c1 [Compound 107] | – | – | – | – | – | – | – | 0 | 91 | 61 | 98 | 0
